Reference: patent US6617459B2, “Azabicyclo derivatives and their use” (NeuroSearch A/S, priority 1999, dated 2003)
Like-named read-outs stand apart in the source and are kept apart here.

Tests used:
Type in all cases: biochemical, male Wistar rats
[1] = target: T1, serotonine transporter/uptake site (3H-5-HT uptake, cortical synaptosomes) (Rattus norvegicus, UniProt P31652); assay: In vitro inhibition of 3H-5-hydroxytryptamine (3H-5-HT, serotonine) uptake in cortical synaptosomes; settings: for IC50: cortical synaptosomes; for greater potency as inhibitors of serotonine uptake than of either noradrenaline or dopamine uptake: selectivity, 5-HT uptake vs NA or DA uptake, in vitro
T1 construct: Cerebral cortices from male Wistar rats (150-200 g) are homogenised; from tissue; host or cells: rat cerebral cortex, P2 synaptosomal pellet
Source text: (§1) The compounds of the invention have been tested for their ability to inhibit reuptake of dopamine(DA) noradrenaline(NA) and serotonine(5-HT) in synaptosomes.
(§2) Specific neurotransmitter transporters/uptake sites on nerve terminals presumably function to terminate neuronal signalling by removing the neurotransmitters dopamine, noradrenaline and serotonine, respectively, from the synaptic cleft. The activity of the transporter integral proteins can be measured in vitro by synaptosomal uptake of ^3H-dopamine, ^3H-noradrenaline and ^3H-serotonine, respectively.
In vitro Inhibition of ^3H-5-hydroxytryptamine (^3H-5-HT, Serotonine) Uptake in Cortical Synaptosomes
(§3) Tissue Preparation: Preparations are performed at 0-4° C. unless otherwise indicated. Cerebral cortices from male Wistar rats (150-200 g) are homogenised for 5-10 sec in 100 volumes of ice-cold 0.32M sucrose containing 1 mM pargyline using an Ultra-Turrax homogenizer. Monoamine oxidase activity will be inhibited in the presence of pargyline. The homogenate is centrifuged at 1000×g for 10 min. The resulting supernatant is then centrifuged at 27,000×g for 50 min and the supernatant is discarded. The pellet (P2) is resuspended in oxygenated (equilibrated with an atmosphere of 96% O2: 4% CO2 for at least 30 min) Krebs-Ringer incubation buffer (1000 ml per g of original tissue) at pH 7.2 containing 122 mM NaCl, 0.16 mM EDTA, 4.8 mM KCl, 12.7 mM Na2HPO4, 3.0 mM NaH2PO4, 1.2 mM MgSO4, 1 mM CaCl2, 10 mM glucose and 1 mM ascorbic acid.
(§4) Assay: Aliquots of 4.0 ml tissue suspension are added to 100 μl of test solution and 100 μl of ^3H-5-HT (1 nM, final concentration), mixed and incubated for 30 min at 37° C. Non-specific uptake is determined using citalopram (1 μM, final concentration). After incubation the samples are poured directly onto Whatman GF/C glass fibre filters under suction. The filters are then washed three times with 5 ml of ice-cold 0.9% (w/v) NaCl solution. The amount of radioactivity on the filters is determined by conventional liquid scintillation counting. Specific uptake is calculated as the difference between total uptake and non-specific uptake.
(§5) 25-75% inhibition of specific binding must be obtained, before calculation of an IC50.
The test value is given as IC50 (the concentration (μM) of the test substance which inhibits the specific binding of ^3H-5-HT by 50%).

[2] = target: T2, dopamine transporter/uptake site (3H-DA uptake, striatal synaptosomes) (Rattus norvegicus, UniProt P23977); assay: In vitro inhibition of 3H-dopamine (3H-DA) uptake in striatal synaptosomes
T2 construct: Corpi striati from male Wistar rats (150-200 g) are homogenised; from tissue; host or cells: rat corpus striatum, P2 synaptosomal pellet
Source text: as §1, §2
In vitro Inhibition of ^3H-dopamine (^3H-DA) Uptake in Striatal Synaptosomes
as §3, with “preparations:” for “Preparation:”, “Corpi striati” for “Cerebral cortices”, “(8000” for “(1000”
as §4, with “^3H-DA” for “^3H-5-HT”, “25” for “30”, “benztropine (10” for “citalopram (1”
as §5
The test value is given as IC50 (the concentration (μM) of the test substance which inhibits the specific binding of ^3H-DA by 50%).

[3] = target: noradrenaline transporter/uptake site (3H-NA uptake, hippocampal synaptosomes) (Rattus norvegicus, UniProt Q9WTR4); assay: In vitro inhibition of 3H-noradrenaline (3H-NA) uptake in hippocampal synaptosomes
Source text: as §1, §2
In vitro Inhibition of ^3H-noradrenaline (^3H-NA) Uptake in Hippocampal Synaptosomes
as §3, with “Tissue preparation:” for “Tissue Preparation:”, “indicated. Hippocampi” for “indicated. Cerebral cortices”, “buffer (2000” for “buffer (1000”, “per […]” for “per g”, “MgSO4, 0.97” for “MgSO4, 1”
as §4, with “^3H-NA” for “^3H-5-HT”, “90” for “30”, “desipramine” for “citalopram”
as §5
The test value is given as IC50 (the concentration (μM) of the test substance which inhibits the specific binding of ^3H-NA by 50%).

[4] = 5-HT-uptake IC50, Table 2, value ± spread
[5] = DA-uptake IC50, Table 1, 3H-DA 1 nM, 25 min at 37° C.
[6] = read-out: NA-uptake IC50, Table 1, 3H-NA 1 nM, 90 min at 37° C.
[7] = 5-HT-uptake IC50, Table 1, 3H-5-HT 1 nM, 30 min at 37° C.
[8] = DA-uptake IC50, Table 2, value ± spread
[9] = read-out: NA-uptake IC50, Table 2, value ± spread

T1 sequence (P31652 whole entry): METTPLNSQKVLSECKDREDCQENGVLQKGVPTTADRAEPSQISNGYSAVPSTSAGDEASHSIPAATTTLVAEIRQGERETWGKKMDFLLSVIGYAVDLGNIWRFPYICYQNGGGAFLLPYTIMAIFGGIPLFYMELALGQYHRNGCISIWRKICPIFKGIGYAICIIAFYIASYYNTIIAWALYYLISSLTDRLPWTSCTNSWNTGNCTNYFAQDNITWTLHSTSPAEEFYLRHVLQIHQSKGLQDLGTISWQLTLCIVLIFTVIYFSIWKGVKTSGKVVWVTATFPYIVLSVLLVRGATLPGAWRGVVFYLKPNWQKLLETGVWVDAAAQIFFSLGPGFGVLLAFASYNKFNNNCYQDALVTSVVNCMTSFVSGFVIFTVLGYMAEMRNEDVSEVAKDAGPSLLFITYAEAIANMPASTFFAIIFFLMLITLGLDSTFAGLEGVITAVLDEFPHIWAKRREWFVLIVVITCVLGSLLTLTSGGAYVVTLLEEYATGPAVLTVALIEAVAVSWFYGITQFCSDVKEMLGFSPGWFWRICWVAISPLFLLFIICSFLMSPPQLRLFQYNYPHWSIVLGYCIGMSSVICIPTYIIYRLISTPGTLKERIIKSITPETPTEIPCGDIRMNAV
T2 sequence (P23977 whole entry): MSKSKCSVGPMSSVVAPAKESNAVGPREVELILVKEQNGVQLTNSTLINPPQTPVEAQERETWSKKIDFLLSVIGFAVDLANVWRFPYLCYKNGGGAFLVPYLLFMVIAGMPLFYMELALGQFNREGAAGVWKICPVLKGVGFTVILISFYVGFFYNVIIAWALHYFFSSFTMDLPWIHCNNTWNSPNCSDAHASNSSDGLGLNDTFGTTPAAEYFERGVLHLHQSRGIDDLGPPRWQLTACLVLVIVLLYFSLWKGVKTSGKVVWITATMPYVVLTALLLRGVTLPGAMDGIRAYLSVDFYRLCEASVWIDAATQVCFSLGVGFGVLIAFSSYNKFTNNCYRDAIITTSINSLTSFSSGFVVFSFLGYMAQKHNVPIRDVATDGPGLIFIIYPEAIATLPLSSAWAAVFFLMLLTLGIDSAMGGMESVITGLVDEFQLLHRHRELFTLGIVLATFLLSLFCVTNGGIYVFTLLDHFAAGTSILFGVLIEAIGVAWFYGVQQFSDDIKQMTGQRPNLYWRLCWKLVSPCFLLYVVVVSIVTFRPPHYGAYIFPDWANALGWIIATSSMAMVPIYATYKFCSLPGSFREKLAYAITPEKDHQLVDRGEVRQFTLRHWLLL

SMILES	IC50 [1, 4]	IC50 [2, 5]	IC50 [3, 6]	IC50 [1, 7]	IC50 [2, 8]	IC50 [3, 9]	greater potency as inhibitors of serotonine uptake than of either noradrenaline or dopamine uptake [1]
FC(F)(F)Oc1ccc(C2=CC3CCC(C2)N3)cc1 (single isomer, unassigned) [3-(4-trifluoromethoxyphenyl)-8-azabicyclo[3.2.1]oct-2-ene (enantiomer A*), 3-(4-trifluoromethoxyphenyl)-8-azabicyclo[3.2.1]oct-2-ene]	22 ± 12 nM						
CN1C2C=C(c3ccc([N+](=O)[O-])cc3)CC1CC2 (racemic) [(±)-3-(4-nitrophenyl)-8-methyl-8-azabicyclo[3.2.1]oct-2-ene]		1.5 µM	0.5 µM	16 nM			
FC(F)(F)Oc1ccc(C2=CC3CCC(C2)N3)cc1 (single isomer, unassigned) [3-(4-trifluoromethoxyphenyl)-8-azabicyclo[3.2.1]oct-2-ene (enantiomer B*), 3-(4-trifluoromethoxyphenyl)-8-azabicyclo[3.2.1]oct-2-ene]	12 ± 6 nM						
FC(F)(F)Oc1ccc(C2=CC3CCC(C2)N3)cc1 (racemic) [(±)-3-(4-trifluoromethoxyphenyl)-8-azabicyclo[3.2.1]oct-2-ene (racemate), (±)-3-(4-trifluoromethoxyphenyl)-8-azabicyclo[3.2.1]oct-2-ene]	4.8 ± 0.6 nM				18.7 ± 3.5 µM	15.6 ± 3.5 µM	3000 fold
CN1C2C=C(c3ccc(OC(F)(F)F)cc3)CC1CC2 (racemic) [(±)-3-(4-trifluoromethoxyphenyl)-8-methyl-8-azabicyclo[3.2.1]oct-2-ene]	3.5 ± 0.3 nM	22 µM	8 µM	3.6 nM	21.3 ± 1.2 µM	12 ± 2.3 µM	3000 fold
CN1C2C=C(c3ccc(C#N)cc3)CC1CC2 (racemic) [(±)-3-(4-cyanophenyl)-8-methyl-8-azabicyclo(3.2.1]oct-2-ene]		18 µM	4.9 µM	47 nM			
